Some test systems named below: OVCAR-5 ovarian; EKVX NSCLC; SK-OV-3 ovarian; U251 CNS; DU-145 prostate; HT29 colon; MDA-N; PC-3 prostate; HCC-2998 colon; SN12C renal; NCI-H23 lung; SF-268 CNS; MCF7 breast; SF-539 CNS; K-562 leukemia; NCI-H460 lung; KM12 colon; MDA-MB-231 breast; HS 578T breast.
What all share (experiment): inhibition of tumour cell growth, NCI panel, 48 h

“And” between values parts separate entries of the source, which are not always exact repeats. Equal values may be shown once.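 Interpolation was linear, between the two tested concentrations surrounding the appropriate level; five concentrations were tested over 48 hours in 96-well plates. Abbreviation: GI50, concentration required for 50% inhibition of growth. The concentration for full growth arrest is given as TGI.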

With `Cc1ccc(C=C(C(=O)O)C(=O)O)o1`, the TGI with OVCAR-5 ovarian, in the assay with EKVX NSCLC, in the assay with SK-OV-3 ovarian, in the assay with U251 CNS, in the assay with DU-145 prostate and in the assay on HT29 colon was more than 100 µM in each case. In addition, the TGI with MDA-N, with PC-3 prostate, with HCC-2998 colon, in the assay on SN12C renal, with NCI-H23 lung and in the assay on SF-268 CNS was more than 100 µM each time. Also, the TGI in the assay on MCF7 breast, with SF-539 CNS, in the assay with K-562 leukemia, in the assay with NCI-H460 lung, in the assay on KM12 colon and with MDA-MB-231 breast was more than 100 µM throughout. The same molecule showed a TGI in the assay on HS 578T breast of more than 100 µM.
Take `O=c1c2ccccc2n2cnc3ccc(NCCNCCO)c1c32`: the TGI stood at 5.84 µM with OVCAR-5 ovarian; 8.49 µM with EKVX NSCLC; 19.6 µM in the assay with SK-OV-3 ovarian; 13.6 µM in the assay on U251 CNS; 3.31 µM in the assay with DU-145 prostate; 6.84 µM in the assay on HT29 colon. The TGI in the assay with MDA-N turned out to be 9.61 µM; in the assay with PC-3 prostate it was 6.15 µM; with HCC-2998 colon, 11.3 µM; with SN12C renal it was 17 µM; in the assay on NCI-H23 lung, 8.12 µM; in the assay with SF-268 CNS it was 8.01 µM. Moreover, the TGI with MCF7 breast is 9.62 µM; in the assay with SF-539 CNS it was 15.8 µM; with K-562 leukemia it was more than 51.1 µM; with NCI-H460 lung it was 7.58 µM; with KM12 colon, 5.72 µM; with MDA-MB-231 breast, 6.58 µM. The same molecule yielded a TGI in the assay with HS 578T breast of 6.26 µM.
Regarding `COc1cccc(/C=C2/S/C(=N/Nc3nc(C)c(C(C)=O)s3)NC2=O)c1O`, the TGI in the assay with OVCAR-5 ovarian was 94.2 µM; in the assay with EKVX NSCLC, 84.4 µM; in the assay on SK-OV-3 ovarian, more than 100 µM; with U251 CNS it was 44 µM; in the assay with DU-145 prostate it was more than 100 µM; with HT29 colon, more than 100 µM. Besides, the TGI with MDA-N was more than 100 µM; with PC-3 prostate it was 70.4 µM; in the assay with HCC-2998 colon it was more than 100 µM; in the assay with SN12C renal, more than 100 µM; in the assay on NCI-H23 lung it was more than 100 µM; in the assay with SF-268 CNS, more than 100 µM. Besides, the TGI is more than 100 µM with MCF7 breast; more than 100 µM in the assay with SF-539 CNS; more than 100 µM with K-562 leukemia; more than 100 µM with NCI-H460 lung; more than 100 µM with KM12 colon; 44.8 µM in the assay on MDA-MB-231 breast. The TGI with HS 578T breast was more than 100 µM.
As for `CC(C)=NNc1ncnc2nc[nH]c12`, the TGI is more than 48.4 µM in the assay with OVCAR-5 ovarian; 98.2 µM in the assay with EKVX NSCLC; more than 58 µM in the assay with SK-OV-3 ovarian; more than 100 µM in the assay on U251 CNS; 67.8 µM with DU-145 prostate; more than 100 µM in the assay with HT29 colon. Besides, the TGI is more than 100 µM in the assay on MDA-N; more than 100 µM in the assay on PC-3 prostate; 32 µM with HCC-2998 colon; more than 100 µM with SN12C renal; more than 100 µM in the assay on NCI-H23 lung; more than 100 µM with SF-268 CNS. In addition, the TGI with MCF7 breast is more than 100 µM; in the assay with SF-539 CNS, more than 88.9 µM; in the assay with K-562 leukemia, more than 100 µM; with NCI-H460 lung, 38.9 µM; in the assay on KM12 colon, more than 100 µM; with MDA-MB-231 breast it was more than 94.3 µM. This molecule displayed a TGI in the assay on HS 578T breast of 83.9 µM.
Regarding `C=C(Cl)C(Cl)(CBr)CCC(Br)C(C)(C)Cl` (centres undefined), the TGI in the assay with OVCAR-5 ovarian is 8.38 µM and 4.14 µM and 29.8 µM; with EKVX NSCLC it was 7.36 µM and 4.19 µM and 12.8 µM; with SK-OV-3 ovarian, 62.7 µM; in the assay with U251 CNS, 2.08 µM and 0.925 µM and 2.71 µM; in the assay on DU-145 prostate, 3.86 µM and 3.1 µM and 7.05 µM; in the assay on HT29 colon, 2.19 µM and 1.94 µM and 2.1 µM. In addition, the TGI in the assay on MDA-N is 8.91 µM and 3.02 µM and 21.6 µM; in the assay with PC-3 prostate, 2.42 µM and 2.17 µM and 3.02 µM; with HCC-2998 colon, 6.35 µM and 2.97 µM and 8.14 µM; with SN12C renal it was 21.9 µM and 19.3 µM and 28.1 µM; with NCI-H23 lung, 40.7 µM and 33.8 µM and > 70.2 µM; in the assay on SF-268 CNS it was 3.13 µM and 1.97 µM and 9.92 µM. In addition, the TGI in the assay with MCF7 breast is 2.83 µM and 2.09 µM and 8.1 µM; with SF-539 CNS, 1.12 µM and 2.69 µM and 3.68 µM; in the assay on K-562 leukemia, 24.4 µM and 10.8 µM and > 92.9 µM; in the assay with NCI-H460 lung, 3.66 µM and 2.93 µM and 5.82 µM; in the assay with KM12 colon it was 3.57 µM and 2.83 µM and 6.38 µM; with MDA-MB-231 breast, 2.92 µM and 5.94 µM and 27.2 µM. For the same molecule, the TGI in the assay on HS 578T breast is 5.25 µM and 5.08 µM and 9.16 µM. Moreover, the GI50 in the assay on HS 578T breast is 0.802 µM.
Take `O=c1[nH]nc(Cc2ccccc2)n1C1CC1`: the TGI with OVCAR-5 ovarian, in the assay on EKVX NSCLC, with SK-OV-3 ovarian, in the assay on U251 CNS, in the assay with DU-145 prostate and in the assay on HT29 colon was more than 100 µM in each case. In addition, the TGI with MDA-N, with PC-3 prostate, in the assay with HCC-2998 colon, with SN12C renal, with NCI-H23 lung and in the assay on SF-268 CNS was more than 100 µM each time. In addition, the TGI in the assay on MCF7 breast, in the assay with SF-539 CNS, with K-562 leukemia, in the assay with NCI-H460 lung, with KM12 colon and in the assay on MDA-MB-231 breast was more than 100 µM in each case. Moreover, the TGI with HS 578T breast was more than 100 µM.
With `CCCCCC(/C=C/[C@@H]1[C@@H](C(O)CCCCCC(=O)OC)C(=O)C[C@H]1O[Si](C)(C)C(C)(C)C)OCOCCOC` (some centres undefined), the TGI stood at 48 µM with OVCAR-5 ovarian; 37.6 µM with EKVX NSCLC; 34 µM in the assay with SK-OV-3 ovarian; 27.4 µM in the assay on U251 CNS; 36.9 µM in the assay with DU-145 prostate; 18.8 µM in the assay with HT29 colon. Besides, the TGI in the assay with MDA-N was 24.4 µM; in the assay with PC-3 prostate it was 27.4 µM; with HCC-2998 colon, more than 57 µM; in the assay with SN12C renal, 45.7 µM; in the assay with NCI-H23 lung it was 32.3 µM; in the assay with SF-268 CNS, 28.4 µM. For the same molecule, the TGI with MCF7 breast is more than 47 µM; with SF-539 CNS, 31 µM; with K-562 leukemia, more than 52 µM; with NCI-H460 lung, more than 100 µM; in the assay with KM12 colon, 16.1 µM; with MDA-MB-231 breast it was 44.1 µM. In the assay on HS 578T breast, this molecule yielded a TGI of 27.2 µM.

These data come from PubChem BioAssay (NCI).
